# Patent US11007181B2, “Cyclopamine analogs” (Infinity Pharmaceuticals, Inc., priority 2006, dated 2021)
# Columns and labels:
# Hedgehog pathway = assay: Inhibition of the Hedgehog pathway in cell culture: C3H10T1/2 osteoblast differentiation, alkaline phosphatase assay; type: cell-based, Mouse; conditions: approximate EC50 for inhibition, C3H10T1/2 cells, sonic Hedgehog 250 ng/ml, alkaline phosphatase activity normalized to total protein
# Description: Hedgehog pathway specific cancer cell killing effects may be ascertained using the following assay. C3H10T1/2 cells differentiate into osteoblasts when contacted with the sonic hedgehog peptide (Shh-N). Upon differentiation; these osteoblasts produce high levels of alkaline phosphatase (AP) which can be measured in an enzymatic assay (Nakamura et al., 1997 BBRC 237: 465). Compounds that block the differentiation of C3H10T1/2 into osteoblasts (a Shh dependent event) can therefore be identified by a reduction in AP production (van der Horst et al., 2003 Bone 33: 899). The assay details are described below. The results approximate (EC50 for inhibition) of the differentiation assay is shown below in Table 1.
# Mouse embryonic mesoderm fibroblasts C3H10T1/2 cells (obtained from ATCC) were cultured in Basal MEM Media (Gibco/Invitrogen) supplemented with 10% heat inactivated FBS (Hyclone), 50 units/ml penicillin and 50 ug/ml streptomycin (Gibco/Invitrogen) at 37 C with 5% CO2 in air atmosphere.
# C3H10T1/2 cells were plated in 96 wells with a density of 8×10^3 cells/well. Cells were grown to confluence (72 hrs). After sonic Hedgehog (250 ng/ml), and/or compound treatment, the cells were lysed in 110 μL, of lysis buffer (50 mM Tris pH 7.4, 0.1% TritonX100), plates were sonicated and lysates spun through 0.2 μm PVDF plates (Corning). 40 μL, of lysates was assayed for AP activity in alkaline buffer solution (Sigma) containing 1 mg/ml p-Nitrophenyl Phosphate. After incubating for 30 min at 37° C., the plates were read on an Envision plate reader at 405 nm. Total protein was quantified with a BCA protein assay kit from Pierce according to manufacturer's instructions. AP activity was normalized against total protein.
# Oral multi-dose MTD = type: in vivo, mice
# murine Gli-1 mRNA = assay: Pancreatic cancer model: q-RT-PCR of HH pathway genes in harvested tumors, murine Gli-1; type: in vivo; conditions: BXPC-3 tumors harvested 4 hours post last dose, 40 mg/kg/day, vs Vehicle group
# Description: (§1) The activity of Compound 42 was tested in a human pancreatic model: BXPC-3 cells were implanted subcutaneously into the flanks of the right legs of mice. On day 42 post-tumor implant, the mice were randomized into two groups to receive either Vehicle (30% HPBCD) or Compound 42. Compound 42 was dosed at 40 mg/kg/day. […] At the end of the study, the tumors were harvested 4 hours post the last dose to evaluate an on target response by q-RT-PCR analysis of the HH pathway genes.
# medulloblastoma = assay: Medulloblastoma model: Ptch1/Hic1 subcutaneous allografts, tumor growth and survival; type: in vivo, mouse; conditions: daily (QD) PO administration
# Description: (§2) The activity of Compound 42 was also evaluated in a transgenic mouse model of medulloblastoma. Mice that are heterozygous for loss of function mutations in the tumor suppressors Patched1 (Ptch1) and Hypermethylated in Cancer (Hic1) develop spontaneous medulloblastoma. […] When passaged as subcutaneous allografts, these tumors grow aggressively and are Hedgehog pathway-dependent. This model was employed to evaluate the efficacy of orally administered Compound, and to correlate activity with drug exposure in plasma and tumors.
# The approximate effective daily oral dose for 50% inhibition of tumor growth (ED50) is 4 mg/kg.
# human Gli-1 = assay: Pancreatic cancer model: q-RT-PCR of HH pathway genes in harvested tumors, human Gli-1; type: in vivo; conditions: BXPC-3 tumors harvested 4 hours post last dose, 40 mg/kg/day
# Description: as §1
# LX22 cells = assay: Lung cancer model: LX22 primary SCLC xenograft in mice; type: in vivo, human
# Description: To test the activity of Compound 42 in a human SCLC tumor model, LX22 cells were implanted subcutaneously into the flank of the right leg. LX22 is primary xenograft model of SCLC derived from chemo-naive patients, which has been maintained by mouse to mouse passaging. This tumor responds to etoposide/carboplatin chemotherapy in way that closely resembles a clinical setting. LX22 regresses during chemotherapy treatment, goes through a period of remission, and then begins to recur. In the LX22 model, Compound single agent activity and its ability to modulate the chemoresistant recurrence was tested. On day 32 post tumor implant, mice were randomized into three dosing groups to receive Vehicle (30% HBPCD), Compound, or the chemotherapy combination of etoposide and carboplatin (E/P). […] Etoposide was administered i.v at 12 mg/kg on days 34, 35, 36, and 48, while Carboplatin was administered i.v. at 60 mg/kg on days 34, 41, and 48, post tumor implant. On day 50, the E/P treated mice were further randomized to receive either Vehicle (30% HPBCD) or Compound follow up treatment.
# BXPC-3 cells = assay: Pancreatic cancer model: BXPC-3 subcutaneous tumors in mice, tumor volume; type: in vivo, human; conditions: 40 mg/kg/day, 25 daily doses, p=0.0309
# Description: as §1
# Gli-1 mRNA = assay: Medulloblastoma model: Ptch1/Hic1 subcutaneous allografts, Gli-1 mRNA expression; type: in vivo, mouse; conditions: single oral dose, subcutaneously implanted medulloblastoma tumors, 8 hours post dose
# Description: as §2
smiles,measurement,setting,value
CC1=C2C[C@H]3[C@@H](CC[C@@H]4CC(=O)CC[C@@]43C)[C@@H]2CC[C@@]2(C1)O[C@@H]1C[C@H](C)CN(C(C)C)[C@H]1[C@H]2C [Compound 10],EC50,Hedgehog pathway,> 100 nM
CC1=C2C[C@H]3[C@@H](CC=C4C[C@@H](O)CC[C@@]43C)[C@@H]2CC[C@@]2(C1)O[C@@H]1C[C@H](C)CN[C@H]1[C@H]2C [Compound 8],EC50,Hedgehog pathway,> 100 nM
CC1=C2C[C@H]3[C@@H](CC[C@@H]4C[C@H](NS(C)(=O)=O)CC[C@@]43C)[C@@H]2CC[C@@]2(C1)O[C@@H]1C[C@H](C)CN[C@H]1[C@H]2C [Compound 42],oral multi-dose MTD,Oral multi-dose MTD,40 mg/kg/day
same,murine Gli-1 mRNA levels (q-RT-PCR),murine Gli-1 mRNA,robust down-regulation
same,tumor growth,medulloblastoma,"dose dependent inhibition of tumor growth, with frank tumor regression seen at higher doses"
same,human Gli-1 modulation (q-RT-PCR),human Gli-1,no modulation
same,"single agent activity, treated vs vehicle groups","LX22 cells; 40 mg/kg/day, 16 consecutive doses",no measurable difference between the treated and vehicle groups
same,tumor recurrence after etoposide/carboplatin (E/P) chemotherapy,"LX22 cells; follow up treatment from day 50, 40 mg/kg/day oral, 35 consecutive doses, vs vehicle, p=0.0101",substantial delay in tumor recurrence
same,reduction of tumor volume growth compared to vehicle control,BXPC-3 cells,40%
same,HH pathway modulation measured by Gli-1 mRNA expression,Gli-1 mRNA,dose-dependent down-regulation of the HH pathway
CC1=C2C[C@H]3[C@@H](CC[C@@H]4C[C@@H](OC(=O)CN)CC[C@@]43C)[C@@H]2CC[C@@]2(C1)O[C@@H]1C[C@H](C)CN[C@H]1[C@H]2C [Compound 40],EC50,"Hedgehog pathway; Mus musculus, C3H 10T1/2",< 20 nM
